The subject of assay [1] is A375P cells. Kind of assay: Anti-proliferative activity on A375P cell line (MTT assay). In kind it is cell-based. The following applies: A375P human melanoma cell line. The protocol:
A375P cells were purchased from American Type Culture Collection (ATCC, Rockville, Md., US) and maintained in DMEM medium (Welgene, Daegu, Korea) supplemented with 10% FBS (Welgene) and 1% penicillin/streptomycin (Welgene) in a humidified atmosphere with 5% CO2 at 37° C. The A375P cells were taken from culture substrate with 0.05% trypsin-0.02% EDTA and plated at a density of 5×10^3 cells/well in 96 well plates and then incubated at 37° C. for 24 h in a humidified atmosphere with 5% CO2 prior to treatment of various concentration (three fold serial dilution, 12 points) of test compounds. The A357P cell viability was assessed by the conventional 3-(4,5-dimethylthiazol-2-yl)-2,5-diphenyltetrazolium bromide (MTT) reduction assay. MTT assays were carried out with CellTiter 96 (Promega) according to the manufacturer's instructions.
After 1 day, 0.5 μl the representative compounds of the examples were added thereto. The representative compounds of the examples were prepared by three fold serial dilution of 10 mM stock solution in DMSO, 12 point (final conc. DMSO 0.5%). Then, 15 μl dye was added in each well. After 2 h, 100 μl stop solution was added each well. After 24 h, absorbance was measured. The absorbance at 590 nm was recorded using EnVision2103 (PerkinElmer; Boston, Mass., US). The IC50 value was calculated using GraphPad Prism 4.0 software.

The target in assay [2] is B-Raf-V600E (Homo sapiens, UniProt P15056, V600E). Nature of the assay: B-Raf kinase enzyme assay (MEK1/Erk2 cascade, MBP phosphorylation, 32P). In kind it is biochemical. The note with it: read-out: b-raf-V600Ekinase inhibitory activity (IC50). The method, then: <1-1> Activation of MAP Kinase 2/Erk2 by B-raf
10 μl magnesium chloride/ATP solution (500 uM ATP, 75 mM magnesium chloride) was seeded in eppendorf tube. 2.5 μl B-Raf-V600E was seed (final conc. 1 ng) in eppendorf tube and treated with 1.6 μl deactivated MEK1 (final conc. 0.4 μg). The mixture was treated with 4 μl deactivated MAP kinase 2/Erk2 (final conc. 1.0 ug). And the mixture was treated with 1 μl example solution (10 mM) dissolved in dimethyl sulfoxide which was orderly diluted. Then, assay dilution buffer I (ADBI I) was added thereto (final vol. 38 μl) to make the final volume of 38 μl, and made it reacted at 30° C. for 30 min. 5 μl of resulting solution was used for the following experiment.
<1-2> Phosphorylation of Myelin basic protein (MBP)
5 μl of the above resulting solution was treated with 10 μl assay dilution buffer, and then treated with 10 μl Myelin basic protein (MBP, 2 mg/Ml). The mixture solution was treated with 10 μl of diluted (1/10) [γ^32P] ATP (100 uCi/vial) which is diluted at 30° C. for 10 min. 25 μl of the mixture solution was spotted onto a P81 paper, and the paper was washed four times with 0.75% phosphoric acid for 10 min and once with acetone for 5 min in scintillation vial. After 5 Ml of scintillation cocktail solution was added in the scintillation vial, signals were analyzed by scintillation counter.

A value given as a limit tells only on which side of the number the result lay.

Chain of B-Raf-V600E (P15056 whole entry V600E): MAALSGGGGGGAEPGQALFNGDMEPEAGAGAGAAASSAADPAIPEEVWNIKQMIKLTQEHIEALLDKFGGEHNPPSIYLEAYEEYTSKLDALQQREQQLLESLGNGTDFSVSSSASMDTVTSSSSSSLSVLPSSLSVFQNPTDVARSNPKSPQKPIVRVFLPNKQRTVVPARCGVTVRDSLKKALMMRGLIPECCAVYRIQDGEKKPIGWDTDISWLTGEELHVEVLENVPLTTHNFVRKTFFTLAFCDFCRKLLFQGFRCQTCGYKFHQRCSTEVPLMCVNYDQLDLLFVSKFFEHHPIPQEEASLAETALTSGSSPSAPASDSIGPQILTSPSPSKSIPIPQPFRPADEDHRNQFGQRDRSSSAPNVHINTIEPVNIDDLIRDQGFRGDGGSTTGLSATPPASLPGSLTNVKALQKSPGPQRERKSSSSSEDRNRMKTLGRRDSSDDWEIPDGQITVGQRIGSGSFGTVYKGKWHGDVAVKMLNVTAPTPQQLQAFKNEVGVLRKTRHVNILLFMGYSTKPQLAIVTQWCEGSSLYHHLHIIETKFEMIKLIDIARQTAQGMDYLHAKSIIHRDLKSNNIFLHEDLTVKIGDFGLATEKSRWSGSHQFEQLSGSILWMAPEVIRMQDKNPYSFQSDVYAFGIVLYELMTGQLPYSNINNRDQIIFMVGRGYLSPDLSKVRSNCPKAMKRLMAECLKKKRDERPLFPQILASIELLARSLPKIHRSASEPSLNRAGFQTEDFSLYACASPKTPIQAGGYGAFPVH

Turning to `CCOC(=O)c1n[nH]c2cc(-c3ccc(NC(=O)c4cnn(-c5ccc(OC)cc5)c4C(F)(F)F)cc3)ccc12` [Example 8, ethyl 6-(4-(1-(4-methoxyphenyl)-5-(trifluoromethyl)-1H-pyrazole-4-carboxamido)phenyl)-1H-indazole-3-carboxylate], in assay [1], the GI50 was under 10 µM. For the same compound, in assay [2], the half-inhibitory concentration (IC50) was under 10 µM. For `CCOC(=O)c1n[nH]c2cc(-c3ccc(NC(=O)c4csc(-c5ccncc5)n4)cc3)ccc12` [Example 17, ethyl 6-(4-(2-(pyridin-4-yl)thiazole-4-carboxamido)phenyl)-1H-indazole-3-carboxylate], the IC50 in assay [2] is under 10 µM.

On to `CCOC(=O)c1n[nH]c2cc(-c3ccc(NC(=O)Nc4ccc(Cl)c(C(F)(F)F)c4)cc3)ccc12` [Example 21, ethyl 6-(4-(3-(4-chloro-3-(trifluoromethyl)phenyl)ureido)phenyl)-1H-indazole-3-carboxylate], for which the 50% growth inhibitory concentration (GI50) in assay [1] was under 10 µM. The half-maximal inhibitory concentration (IC50) in assay [2] is under 10 µM. In assay [1], `CNC(=O)c1n[nH]c2cc(-c3ccc(NC(=O)c4cccc(C(F)(F)F)c4)cc3)ccc12` [Example 24, N-methyl-6-(4-(3-(trifluoromethyl)benzamido)phenyl)-1H-indazole-3-carboxamide] yielded a GI50 of under 10 µM. Also, the IC50 in assay [2] is under 10 µM. `CCOC(=O)c1n[nH]c2cc(-c3cccc(NC(=O)Cc4ccc(OC)c(OC)c4)c3)ccc12` [Example 48, ethyl 6-(3-(2-(3,4-dimethoxyphenyl)acetamido)phenyl)-1H-indazole-3-carboxylate] had a GI50 in assay [1] of under 10 µM. The IC50 in assay [2] is under 10 µM.

In the case of `O=C(Nc1cccc(-c2ccc3c(C(=O)NCCN4CCOCC4)n[nH]c3c2)c1)c1cccc(C(F)(F)F)c1` [Example 50, N-(2-morpholinoethyl)-6-(3-(3-(trifluoromethyl)benzamido)phenyl)-1H-indazole-3-carboxamide], the IC50 in assay [2] is under 10 µM. In assay [1], `CCOC(=O)c1n[nH]c2cc(-c3cccc(NC(=O)Nc4cccc(Cl)c4Cl)c3)ccc12` [Example 54, ethyl 6-(3-(3-(2,3-dichlorophenyl)ureido)phenyl)-1H-indazole-3-carboxylate] displayed a GI50 of under 10 µM. For the same compound, in assay [2], the half-inhibitory concentration (IC50) is under 10 µM. In turn, `CCOC(=O)c1n[nH]c2cc(-c3cc(NC(=O)Nc4ccc(Cl)c(C(F)(F)F)c4)ccc3C)ccc12` [Example 57, ethyl 6-(5-(3-(4-chloro-3-(trifluoromethyl)phenyl)ureido)-2-methylphenyl)-1H-indazole-3-carboxylate] gave a GI50 in assay [1] of under 10 µM. Moreover, the IC50 in assay [2] is under 10 µM. In turn, `O=C(Nc1cccc(-c2ccc3c(C(=O)NCCN4CCOCC4)n[nH]c3c2)c1)Nc1ccc(Cl)c(C(F)(F)F)c1` [Example 58, 6-(3-(3-(4-chloro-3-(trifluoromethyl)phenyl)ureido)phenyl)-N-(2-morpholinoethyl)-1H-indazole-3-carboxamide] returned a GI50 in assay [1] of under 10 µM. For the same compound, the IC50 in assay [2] was under 10 µM. Consider `CCNC(=O)c1n[nH]c2cc(-c3cccc(NC(=O)Nc4ccc(Cl)c(Cl)c4)c3)ccc12` [Example 62, 6-(3-(3-(3,4-dichlorophenyl)ureido)phenyl)-N-ethyl-1H-indazole-3-carboxamide], for which the GI50 in assay [1] is under 10 µM.

Take `CCNC(=O)c1n[nH]c2cc(-c3cccc(NC(=O)Nc4ccc(C)cc4C)c3)ccc12` [Example 63, 6-(3-(3-(2,4-dimethylphenyl)ureido)phenyl)-N-ethyl-1H-indazole-3-carboxamide]: the GI50 in assay [1] was under 10 µM. For the compound `Cc1ccc(NC(=O)Nc2ccc(Cl)c(C(F)(F)F)c2)cc1-c1ccc2c(C(=O)NCCN(C)C)n[nH]c2c1` [Example 65, 6-(5-(3-(4-chloro-3-(trifluoromethyl)phenyl)ureido)-2-methylphenyl)-N-(2-(dimethylamino)ethyl)-1H-indazole-3-carboxamide], the GI50 in assay [1] was under 10 µM. On the same count and under the same terms, under `Cc1ccc(NC(=O)Nc2ccc(Cl)c(C(F)(F)F)c2)cc1-c1ccc2c(C(=O)NC3CC3)n[nH]c2c1` [Example 66, 6-(5-(3-(4-chloro-3-(trifluoromethyl)phenyl)ureido)-2-methylphenyl)-N-cyclopropyl-1H-indazole-3-carboxamide] stands under 10 µM; under `Cc1ccc(NC(=O)c2cccc(C(F)(F)F)c2)cc1-c1ccc2c(C(=O)NCCN3CCOCC3)n[nH]c2c1` [Example 67, 6-(2-methyl-5-(3-(trifluoromethyl)benzamido)phenyl)-N-(2-morpholinoethyl)-1H-indazole-3-carboxamide], under 10 µM; under `CCOC(=O)c1n[nH]c2cc(-c3cccc(NS(=O)(=O)c4cccc(C(F)(F)F)c4)c3)ccc12` [Example 68, ethyl 6-(3-(3-(trifluoromethyl)phenylsulfonamido)phenyl)-1H-indazole-3-carboxylate], under 10 µM. Regarding `CCOC(=O)c1n[nH]c2cc(-c3cccc(NC(=O)Nc4ccc(CN5CCN(CC)CC5)c(C(F)(F)F)c4)c3)ccc12` [Example 69, ethyl 6-(3-(3-(4-((4-ethylpiperazin-1-yl)methyl)-3-(trifluoromethyl)phenyl)ureido)phenyl)-1H-indazole-3-carboxylate], in assay [1], the GI50 was under 10 µM. In turn, `COC(=O)c1n[nH]c2cc(-c3cccc(NC(=O)Nc4ccc(N5CCN(C)CC5)c(C(F)(F)F)c4)c3)ccc12` [Example 70, methyl 6-(3-(3-(4-(4-methylpiperazin-1-yl)-3-(trifluoromethyl)phenyl)ureido)phenyl)-1H-indazole-3-carboxylate] returned a GI50 in assay [1] of under 10 µM.

`CCOC(=O)c1n[nH]c2cc(-c3cc(NC(=O)Nc4ccc(N5CCN(C)CC5)c(C(F)(F)F)c4)ccc3C)ccc12` [Example 71, ethyl 6-(2-methyl-5-(3-(4-(4-methylpiperazin-1-yl)-3-(trifluoromethyl)phenyl)ureido)phenyl)-1H-indazole-3-carboxylate]: in assay [1], the GI50 was under 10 µM. `O=C(Nc1ccc(-c2ccc3[nH]nc(C(=O)NCCN4CCOCC4)c3c2)cc1)Nc1ccc(Cl)c(C(F)(F)F)c1` [Example 72, 5-(4-(3-(4-chloro-3-(trifluoromethyl)phenyl)ureido)phenyl)-N-(2-morpholinoethyl)-1H-indazole-3-carboxamide] registered a GI50 in assay [1] of under 10 µM. Regarding `CNC(=O)c1n[nH]c2cc(-c3cc(NC(=O)c4cc(-n5cnc(C)c5)cc(C(F)(F)F)c4)ccc3C)ccc12` [Example 73, N-methyl-6-(2-methyl-5-(3-(4-methyl-1H-imidazol-1-yl)-5-(trifluoromethyl)benzamido)phenyl)-1H-indazole-3-carboxamide], the concentration for 50% growth inhibition (GI50) in assay [1] was under 10 µM. The same measure, in the same setting: to `CNC(=O)c1n[nH]c2cc(-c3cc(NC(=O)Nc4cc(-n5cnc(C)c5)cc(C(F)(F)F)c4)ccc3C)ccc12` [Example 75, N-methyl-6-(2-methyl-5-(3-(3-(4-methyl-1H-imidazol-1-yl)-5-(trifluoromethyl)phenyl)ureido)phenyl)-1H-indazole-3-carboxamide] belongs under 10 µM; to `CCOC(=O)c1n[nH]c2cc(-c3cccc(NC(=O)c4cc(N5CCC(O)CC5)cc(C(F)(F)F)c4)c3)ccc12` [Example 76, ethyl 6-(3-(3-(4-hydroxypiperidin-1-yl)-5-(trifluoromethyl)benzamido)phenyl)-1H-indazole-3-carboxylate], under 10 µM.

`O=C(Nc1cccc(-c2ccc3c(C(=O)NCCN4CCOCC4)n[nH]c3c2)c1)c1cc(N2CCC(O)CC2)cc(C(F)(F)F)c1` [Example 77, 6-(3-(3-(4-hydroxypiperidin-1-yl)-5-(trifluoromethyl)benzamido)phenyl)-N-(2-morpholinoethyl)-1H-indazole-3-carboxamide]: the GI50 in assay [1] was under 10 µM.

For `COC(=O)c1n[nH]c2cc(-c3cccc(NC(=O)c4ccc(OC5CCN(C)CC5)c(C(F)(F)F)c4)c3)ccc12` [Example 78, methyl 6-(3-(4-(1-methylpiperidin-4-yloxy)-3-(trifluoromethyl)benzamido)phenyl)-1H-indazole-3-carboxylate], the GI50 in assay [1] was under 10 µM.

With `O=C(Nc1cccc(-c2ccc3c(CO)n[nH]c3c2)c1)Nc1ccc(Cl)c(C(F)(F)F)c1` [Example 79, 1-(4-chloro-3-(trifluoromethyl)phenyl)-3-(3-(3-(hydroxymethyl)-1H-indazol-6-yl)phenyl)urea], the 50% growth inhibitory concentration (GI50) in assay [1] is under 10 µM. The IC50 in assay [2] is under 10 µM.

One may read the GI50 as the concentration giving 50% growth inhibition. A high value points to less potent growth inhibition. Usually IC50 stands for the midpoint of a concentration-inhibition curve.
